In US10266493B2, “Thioacetate compounds, compositions and methods of use” (Ardea Biosciences, Inc., priority 2010, dated 2019):

Each compound was assayed against URAT1 (Homo sapiens, UniProt Q96S37) (assay: URAT1-model assay: 14C-uric acid transport in HEK293/URAT1-model cells). Conditions: HEK293 cells transfected with model URAT1 construct; 14C-uric acid uptake, 10 minutes at room temperature; read-out: URAT1 EC50 Activity Ranking.
Sequence of URAT1 (Q96S37 whole entry, looked up): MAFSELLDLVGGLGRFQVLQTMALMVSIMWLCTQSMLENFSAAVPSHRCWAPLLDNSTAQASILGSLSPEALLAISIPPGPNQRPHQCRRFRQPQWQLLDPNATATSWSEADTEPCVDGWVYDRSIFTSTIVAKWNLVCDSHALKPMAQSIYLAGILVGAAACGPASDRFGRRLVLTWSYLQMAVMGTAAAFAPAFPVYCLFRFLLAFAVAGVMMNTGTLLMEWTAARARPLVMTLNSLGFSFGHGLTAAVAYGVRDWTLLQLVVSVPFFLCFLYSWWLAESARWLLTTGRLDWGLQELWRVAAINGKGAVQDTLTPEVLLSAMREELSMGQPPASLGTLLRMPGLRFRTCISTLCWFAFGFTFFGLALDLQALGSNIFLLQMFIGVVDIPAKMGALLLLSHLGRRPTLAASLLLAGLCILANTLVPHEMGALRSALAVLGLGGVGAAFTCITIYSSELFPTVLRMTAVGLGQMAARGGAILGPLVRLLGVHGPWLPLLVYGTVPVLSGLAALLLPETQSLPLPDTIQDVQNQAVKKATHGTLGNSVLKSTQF
Format: cell-based
Description: Transfections of HEK293 cells with a model URAT1 construct was performed using L2000 transfection reagent (Invitrogen) as described by the manufacturer. After 24 h the transfected cells were split into 10 cm tissue culture plates and grown for 1 day after which the medium was replaced with fresh growth medium containing G418 (Gibco) at 0.5 mg/ml final concentration. Drug-resistant colonies were selected after approximately 8 days and then tested for ^14C-uric acid transport activity. The HEK293/URAT1-model cells are plated on Poly-D-Lysine Coated 96-well Plates at a density of 125,000 cells per well.
Cells were grown overnight (20-26 hours) at 37° C. in an incubator. […] Plates were incubated at room temperature for 10 minutes then washed 3 times with 50 μl Wash Buffer and 3 times with 250 μl Wash Buffer. Microscint 20 Scintillation Fluid was added and plates were incubated overnight at room temperature to equilibrate. Plates are then read on the TopCount Plate Reader and an EC50 value generated.
With `CC(C)(Sc1ccncc1-c1ccccc1)C(=O)O` [Example 2R] the EC50 was 0.5 to 10 µM.
In the case of `CC(C)(Sc1ccncc1-c1ccc2c(c1)OCCO2)C(=O)O` [Example 2I], the EC50 is reported as 0.5 to 10 µM.
`CC(C)(Sc1ccncc1-c1ccc(CC(N)=O)cc1)C(=O)O` [Example 2SS] gave an EC50 of 0.5 to 10 µM.
`N#Cc1ccc(-c2cnccc2SC(F)(F)C(=O)O)c2ccccc12` [Example 2FF] was tested, and the EC50 was 0.5 to 10 µM.
For `Cc1ccc(-c2cnccc2SC(C)(C)C(=O)O)cn1` [Example 2LL], the EC50 was 0.5 to 10 µM.
In the case of `CC(C)(Sc1ccncc1-c1ccc(N)cc1)C(=O)O` [Example 2YY], the EC50 is reported as 0.5 to 10 µM.
Work on `Cn1cc(-c2cnccc2SC(C)(C)C(=O)O)cn1` [Example 2QQ] yielded an EC50 of 0.5 to 10 µM.
For `CCOc1ccc2cc(-c3cnccc3SC(C)(C)C(=O)O)ccc2c1` [Example 2Y], the EC50 was 0.5 to 10 µM.
`CC(C)(Sc1ccncc1-c1ccc(C(=O)O)cc1F)C(=O)O` [Example 2HHH] gave an EC50 of 0.5 to 10 µM.
Compound `CC(C)(Sc1ccncc1-c1cccnc1)C(=O)O` [Example 2M] has an EC50 of 0.5 to 10 µM.
`CC(C)(Sc1ccncc1-c1ccc2ccccc2c1)C(=O)O` [Example 2Z] was tested, and the EC50 was 0.5 to 10 µM.
`CC(C)(Sc1ccncc1-c1cccc2cnccc12)C(=O)O` [Example 2L] gave an EC50 of 0.5 to 10 µM.
`CC(C)(Sc1ccncc1-c1ccc2c(c1)OCO2)C(=O)O` [Example 2E] was tested, and the EC50 was 0.5 to 10 µM.
Work on `CN(C)c1ccc(-c2cnccc2SC(C)(C)C(=O)O)cc1` [Example 2OO] yielded an EC50 of 0.5 to 10 µM.
`CC(C)(Sc1ncncc1-c1ccc(C#N)c2ccccc12)C(=O)O` [Example 6B, 2-(5-(4-cyanonaphthalen-1-yl)pyrimidin-4-ylthio)-2-methylpropanoic Acid] was tested, and the EC50 was 0.5 to 10 µM.
Compound `CC(C)(Sc1ccncc1-c1ccc(CC#N)cc1)C(=O)O` [Example 2RR] has an EC50 of 0.5 to 10 µM.
`N#Cc1ccc(-c2cccnc2SCC(=O)O)c2ccccc12` [Example 4B] gave an EC50 of 0.5 to 10 µM.
`COc1ccc2cc(-c3cnccc3SC(C)(C)C(=O)O)ccc2c1` [Example 2V] showed an EC50 of 0.5 to 10 µM.
`COc1ncc(-c2cnccc2SC(C)(C)C(=O)O)cn1` [Example 2HH] was tested, and the EC50 was 0.5 to 10 µM.
`N#Cc1ccc(-c2cnccc2SCC(=O)O)c2ccccc12` [Example 2B] gave an EC50 of 0.5 to 10 µM.
`CC(C)(Sc1ccncc1-c1cc2ccccc2[nH]1)C(=O)O` [Example 2G] showed an EC50 of 0.5 to 10 µM.
